Results from patent publication EP0326329B1, “Quinazoline derivatives useful as insecticides” (Dow AgroSciences LLC, priority 1988, dated 1989).
Read-outs that look alike come from different tables or passages of the source.

Tests used:
Type in all cases: in vivo
[1] = tested on: melon aphids (Aphis gossypii Glover); assay: Mite/insect screen, sprayed squash cotyledons (MA)
In short: (§1)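 Compounds dissolved in acetone/alcohol with TOXIMUL R/S emulsifiers, diluted with water to test concentrations, and sprayed to runoff on both leaf surfaces at 10 psi, then dried 1 h. Excised treated squash leaves given southern armyworm larvae; aphid and spider mite tests on sprayed squash cotyledons. Percent mortality and phytotoxicity scored after standard exposure.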

[2] = tested on: Venturia inaequalis (apple scab); assay: Greenhouse Test 1, foliar spray fungicide screen (APPL SCAB), host apple seedling; settings: disease control rating, 400 ppm (+++ at 100 ppm)
[3] = tested on: Twospotted spider mites (Tetranychus urticae Koch); assay: Mite/insect screen, sprayed squash cotyledons (SM)
In short: as §1

[4] = tested on: Pseudocercosporella herpotrichoides; assay: Fungicide field tests; settings: crop: wheat
Excerpt: (§2) Selected compounds were field tested on various crops against a variety of pathogens. […]

[5] = tested on: Rhynchosporium secalis; assay: Fungicide field tests; settings: crop: barley
Excerpt: as §2

[6] = tested on: Pyrenophora teres; assay: Fungicide field tests; settings: crop: barley
Excerpt: as §2

[7] = tested on: Plasmopara viticola; assay: Fungicide field tests; settings: crop: grape
Excerpt: as §2

[8] = tested on: Sphaerotheca fuliginea; assay: Fungicide field tests; settings: crop: cucumber
Excerpt: as §2

[9] = tested on: Erysiphe graminis hordei; assay: Fungicide field tests; settings: crop: barley
Excerpt: as §2

[10] = tested on: Erysiphe graminis tritici; assay: Fungicide field tests; settings: crop: wheat
Excerpt: as §2

[11] = tested on: Erysiphe sp.; assay: Fungicide field tests; settings: crop: sugar beet
Excerpt: as §2

[12] = tested on: Septoria tritici (leaf blotch); assay: Greenhouse Test 1, foliar spray fungicide screen (LEAF BLOT), host wheat; settings: disease control rating, 400 ppm (+++ at 100 ppm)
[13] = tested on: Erysiphe graminis tritici (powdery mildew); assay: Greenhouse Test 1, foliar spray fungicide screen (POWD MDEW), host wheat; settings: disease control rating, 400 ppm (+++ at 100 ppm)
[14] = tested on: southern armyworm (Spodopetra eridania Cramer); assay: Mite/insect screen, sprayed squash leaves (SAW); settings: Spodoptera eridania, read-out: SAW RESULTS %
In short: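 For the armyworm test, two uninfested sprayed leaves were excised, once dry for an hour, and placed in a Petri dish holding larvae. Spray solutions came from an emulsifier-containing 50:50 acetone/alcohol formulation diluted with water and were applied to runoff.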

[15] = tested on: Southern corn rootworm (Diabrotica undecimpuctata howardi Barber); assay: Mite/insect screen, soil treatment (CRW)
In short: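 Compounds dissolved in acetone/alcohol (50:50) with Toximul R/S emulsifiers, diluted with water. Soil (15 g, with presoaked corn seed) treated with 1 mL test solution, dried 6–12 h, then five 2–3 instar larvae added; held at 23°C. Percent mortality and phytotoxicity scored after standard exposure periods.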

[16] = tested on: Puccinia recondita tritici (leaf rust); assay: Greenhouse Test 1, foliar spray fungicide screen (LEAF RUST), host wheat; settings: disease control rating, 400 ppm (+++ at 100 ppm)
[17] = tested on: Pyricularia oryzae (rice blast); settings: disease control rating, foliar spray, host rice; 400 ppm (+++ at 100 ppm)
[18] = tested on: cotton aphid; assay: Mite and insect field trials; settings: plant: cotton
Method: (§3) 4-[2-[4-(t-butyl)phenyl]ethoxy]quinazoline and 4-[2-(1,1'-biphenyl)-4 biphenyl)-4-ylethoxy]quinazoline were evaluated against a variety of mite and insect species in field trials.

[19] = tested on: citrus rust mite; assay: Mite and insect field trials; settings: tested on grapefruit
Method: as §3

[20] = tested on: green cloverworm; assay: Mite and insect field trials; settings: plant: alfalfa (Lucerne)
Method: as §3

[21] = tested on: bean aphid; assay: Mite and insect field trials; settings: plant: bean, faba broad
Method: as §3

[22] = tested on: black citrus aphid; assay: Mite and insect field trials; settings: plant: lemon
Method: as §3

[23] = tested on: tarnished plant bug; assay: Mite and insect field trials; settings: plant: alfalfa (Lucerne)
Method: as §3

[24] = tested on: cereal aphid; assay: Mite and insect field trials; settings: plant: barley
Method: as §3

[25] = tested on: thrips; assay: Mite and insect field trials; settings: plant: privet
Method: as §3

[26] = tested on: green peach aphid; assay: Mite and insect field trials
Method: as §3

[27] = tested on: greenhouse thrips; assay: Mite and insect field trials; settings: plant: azaleas
Method: as §3

[28] = tested on: apple rust mite; assay: Mite and insect field trials; settings: plant: apples
Method: as §3

[29] = tested on: European red mite; assay: Mite and insect field trials; settings: plant: apples
Method: as §3

[30] = tested on: white apple leafhopper; assay: Mite and insect field trials; settings: plant: apples
Method: as §3

[31] = tested on: grape leafhopper; assay: Mite and insect field trials; settings: plant: grape (European)
Method: as §3

[32] = tested on: yellow hickory aphid; assay: Mite and insect field trials; settings: plant: pecan nut
Method: as §3

[33] = tested on: potato aphid; assay: Mite and insect field trials; settings: plant: turnip
Method: as §3

[34] = tested on: twospotted spider mite; assay: Mite and insect field trials
Method: as §3

[35] = tested on: grape thrips; assay: Mite and insect field trials; settings: plant: grape (European)
Method: as §3

[36] = tested on: Dawson-hop aphid; assay: Mite and insect field trials; settings: plant: hops
Method: as §3

[37] = tested on: rosy apple aphid; assay: Mite and insect field trials; settings: plant: apples
Method: as §3

[38] = tested on: wheat aphid; assay: Mite and insect field trials; settings: plant: wheat
Method: as §3

[39] = tested on: apple aphid; assay: Mite and insect field trials; settings: plant: apples
Method: as §3

[40] = tested on: potato leafhopper; assay: Mite and insect field trials; settings: plant: alfalfa (Lucerne)
Method: as §3

[41] = tested on: pea aphid; assay: Mite and insect field trials
Method: as §3

[42] = tested on: Pseudoperonospora cubensis (downy mildew); assay: Greenhouse Test 1, foliar spray fungicide screen (DOWN MDEW), host squash; settings: disease control rating, 400 ppm (+++ at 100 ppm)
[43] = tested on: Cercospora beticola (leaf spot); assay: Greenhouse Test 1, foliar spray fungicide screen (LEAF SPOT), host sugar beet; settings: disease control rating, 400 ppm (+++ at 100 ppm)
[44] = tested on: Botrytis cinerea (gray mold); assay: Greenhouse Test 1, foliar spray fungicide screen (GRAY MOLD), host grape berries; settings: disease control rating, 400 ppm (+++ at 100 ppm)
[45] = tested on: Uncinula necator; assay: Fungicide field tests; settings: crop: grapes
Excerpt: as §2

[46] = tested on: Podosphaera leucotricha; assay: Fungicide field tests; settings: crop: apple
Excerpt: as §2

[47] = tested on: Septoria nodorum; assay: Fungicide field tests; settings: crop: wheat
Excerpt: as §2

[48] = tested on: Alternaria brassicae; assay: Fungicide field tests; settings: crop: rape
Excerpt: as §2

[49] = Aphis gossypii, read-out: MA RESULTS %
[50] = Tetranychus urticae, read-out: SM RESULTS %
[51] = Diabrotica, soil, read-out: CRW RESULTS %
[52] = percent mortality, spray rate 200 ppm

CC(C)(C)c1ccc(CCOc2ncnc3ccccc23)cc1 [Example 2, 4-[2-[4-(t-butyl)phenyl]ethoxy]quinazoline]
mortality at 200 ppm [1, 49]: 90%
mortality at 400 ppm [1, 49]: 80%
APPL SCAB [2]: + (+ = 20-89% control at 400 ppm)
mortality at 200 ppm [3, 50]: 100%
mortality at 400 ppm [3, 50]: 90%
pathogen against which compound demonstrated activity in field tests [4]: Pseudocercosporella herpotrichoides
pathogen against which compound demonstrated activity in field tests [5]: Rhynchosporium secalis
pathogen against which compound demonstrated activity in field tests [6]: Pyrenophora teres
pathogen against which compound demonstrated activity in field tests [7]: Plasmopara viticola
pathogen against which compound demonstrated activity in field tests [8]: Sphaerotheca fuliginea
pathogen against which compound demonstrated activity in field tests [9]: Erysiphe graminis hordei
pathogen against which compound demonstrated activity in field tests [10]: Erysiphe graminis tritici
pathogen against which compound demonstrated activity in field tests [11]: Erysiphe sp.
LEAF BLOT [12]: + (+ = 20-89% control at 400 ppm)
POWD MDEW [13]: ++ (++ = 90-100% control at 400 ppm)
mortality at 200 ppm [14]: 0%
mortality at 400 ppm [14]: 20%
mortality at 12 ppm [15, 51]: 0%
mortality at 24 ppm [15, 51]: 0%
LEAF RUST [16]: +++ (+++ = 90-100% control at 100 ppm)
RICE BLAST [17]: +++ (+++ = 90-100% control at 100 ppm)
mite or insect species against which they showed activity in field trials [18]: cotton aphid
activity against citrus rust mite in field trials [19]: showing activity
mite or insect species against which they showed activity in field trials [20]: green cloverworm
mite or insect species against which they showed activity in field trials [21]: bean aphid
mite or insect species against which they showed activity in field trials [22]: black citrus aphid
mite or insect species against which they showed activity in field trials [23]: tarnished plant bug
mite or insect species against which they showed activity in field trials [24]: cereal aphid
mite or insect species against which they showed activity in field trials [25]: thrips
mite or insect species against which they showed activity in field trials ([26]; plant: apples): green peach aphid
mite or insect species against which they showed activity in field trials ([26]; plant: sugar beet): green peach aphid
mite or insect species against which they showed activity in field trials [27]: greenhouse thrips
mite or insect species against which they showed activity in field trials [28]: apple rust mite
mite or insect species against which they showed activity in field trials [29]: European red mite
mite or insect species against which they showed activity in field trials [30]: white apple leafhopper
mite or insect species against which they showed activity in field trials [31]: grape leafhopper
mite or insect species against which they showed activity in field trials [32]: yellow hickory aphid
mite or insect species against which they showed activity in field trials [33]: potato aphid
mite or insect species against which they showed activity in field trials ([34]; plant: azaleas): twospotted spider mite
mite or insect species against which they showed activity in field trials ([34]; plant: broccoli): twospotted spider mite
mite or insect species against which they showed activity in field trials ([34]; plant: plum (Japanese)): twospotted spider mite
mite or insect species against which they showed activity in field trials [35]: grape thrips
mite or insect species against which they showed activity in field trials [36]: Dawson-hop aphid
mite or insect species against which they showed activity in field trials [37]: rosy apple aphid
mite or insect species against which they showed activity in field trials [38]: wheat aphid
mite or insect species against which they showed activity in field trials [39]: apple aphid
mite or insect species against which they showed activity in field trials [40]: potato leafhopper
mite or insect species against which they showed activity in field trials ([41]; plant: alfalfa (Lucerne)): pea aphid
mite or insect species against which they showed activity in field trials ([41]; plant: pea, garden (English)): pea aphid
DOWN MDEW [42]: +++ (+++ = 90-100% control at 100 ppm)
LEAF SPOT [43]: ++ (++ = 90-100% control at 400 ppm)
GRAY MOLD [44]: - (- = 0-19% control at 400 ppm)

c1ccc2cc(CCNc3ncnc4ccccc34)ccc2c1 [Example 53, N-[2-(2-naphthyl)ethyl]-4-quinazolinamine]
mortality at 200 ppm ([1]; Aphis gossypii, percent mortality, spray rate 200 ppm, read-out: MA RESULTS %): 0%
MA RESULTS % [1, 52]: 0%
APPL SCAB [2]: + (+ = 20-89% control at 400 ppm)
mortality at 200 ppm ([3]; Tetranychus urticae, percent mortality, spray rate 200 ppm, read-out: SM RESULTS %): 0%
SM RESULTS % [3, 52]: 0%
pathogen against which compound demonstrated activity in field tests [45]: Uncinula necator
pathogen against which compound demonstrated activity in field tests [46]: Podosphaera leucotricha
pathogen against which compound demonstrated activity in field tests [4]: Pseudocercosporella herpotrichoides
pathogen against which compound demonstrated activity in field tests [5]: Rhynchosporium secalis
pathogen against which compound demonstrated activity in field tests [47]: Septoria nodorum
pathogen against which compound demonstrated activity in field tests [6]: Pyrenophora teres
pathogen against which compound demonstrated activity in field tests [7]: Plasmopara viticola
pathogen against which compound demonstrated activity in field tests [8]: Sphaerotheca fuliginea
pathogen against which compound demonstrated activity in field tests [48]: Alternaria brassicae
pathogen against which compound demonstrated activity in field tests [9]: Erysiphe graminis hordei
pathogen against which compound demonstrated activity in field tests [10]: Erysiphe graminis tritici
LEAF BLOT [12]: +++ (+++ = 90-100% control at 100 ppm)
POWD MDEW [13]: +++ (+++ = 90-100% control at 100 ppm)
mortality at 12 ppm ([15]; Diabrotica, percent mortality, soil treatment, CRW rate 12.00 ppm, read-out: CRW RESULTS %): 0%
CRW RESULTS % ([15]; percent mortality, soil treatment, CRW rate 12.00 ppm): 0%
LEAF RUST [16]: +++ (+++ = 90-100% control at 100 ppm)
RICE BLAST [17]: +++ (+++ = 90-100% control at 100 ppm)
DOWN MDEW [42]: +++ (+++ = 90-100% control at 100 ppm)
LEAF SPOT [43]: - (- = 0-19% control at 400 ppm)
GRAY MOLD [44]: - (- = 0-19% control at 400 ppm)
